Assay results reported in patent US8431593B2, “Heteroaryl amide derivatives” (H. Lundbeck A/S, priority 2006, dated 2013).

Target: T1, P2X7 receptor (Homo sapiens, UniProt Q99572)
T1 construct: host or cells: SH-SY5Y
T1 sequence (Q99572 1-595): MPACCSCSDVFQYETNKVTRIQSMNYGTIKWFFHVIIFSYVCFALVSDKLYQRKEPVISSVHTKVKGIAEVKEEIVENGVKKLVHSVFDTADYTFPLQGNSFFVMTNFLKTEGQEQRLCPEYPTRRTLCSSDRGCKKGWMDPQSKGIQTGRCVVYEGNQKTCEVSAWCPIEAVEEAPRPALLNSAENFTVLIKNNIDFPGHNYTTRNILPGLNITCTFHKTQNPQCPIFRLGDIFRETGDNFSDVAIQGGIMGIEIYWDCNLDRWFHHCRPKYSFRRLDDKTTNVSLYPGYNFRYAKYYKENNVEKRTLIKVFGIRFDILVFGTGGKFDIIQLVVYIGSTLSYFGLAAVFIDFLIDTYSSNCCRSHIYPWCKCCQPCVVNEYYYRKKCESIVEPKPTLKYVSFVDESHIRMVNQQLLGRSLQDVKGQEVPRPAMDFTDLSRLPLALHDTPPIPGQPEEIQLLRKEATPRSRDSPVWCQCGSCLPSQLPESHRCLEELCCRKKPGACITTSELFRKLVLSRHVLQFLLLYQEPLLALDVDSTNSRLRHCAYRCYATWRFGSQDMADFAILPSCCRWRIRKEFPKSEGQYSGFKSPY
Test: P2X7 calcium mobilization assay, high throughput, antagonist activity (Example 4A)
Format: cell-based
Conditions: not given
In short: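 FLIPR^TETRA calcium read-out: maximum RFU per well minus average no-agonist control, with agonist wells giving the average positive maximum. Cells seeded at 100,000/well one day ahead, dye-loaded 1 h, rinsed, then exposed to compound for 1 h at room temperature.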

| SMILES | IC50 [nM] |
| --- | --- |
| CC(C)CNCc1cn2c(C(=O)NCC34CC5CC(CC(C5)C3)C4)cccc2n1 [Compound 12, N-(adamantan-1-ylmethyl)-2-[(isobutyl-amino)methyl]imi-dazo[1,2-a]pyridine-5-carboxamide] | < 2000 |

Same assay, conditions: 50% decrease in the fluorescence response of cells exposed to 80 μM 2′(3′)-O-(4-benzoyl-benzoyl)adenosine 5′-triphosphate; Example 4A; read-out: IC50

| SMILES | IC50 [nM] |
| --- | --- |
| COCCN(C(=O)Cc1cn2c(C(=O)NC[C@@H]3CC[C@@H]4C[C@H]3C4(C)C)cccc2n1)C1CCNCC1(C)C (stereo partly drawn) [Compound 573, N-{[(1R,2R,5R)-6,6-dimethylbicyclo[3.1.1]hept-2-yl]methyl}-2-{2-[(3,3-dimethyl-piperidin-4-yl)(2-methoxyethyl)amino]-2-oxoethyl}imidazo [1,2-a]pyridine-5-carboxamide] | < 2000 |
| CCCN(C)C(=O)CNC(=O)c1cn2c(C(=O)NC[C@@H]3CC[C@H]4C[C@@H]3C4(C)C)cccc2n1 [Compound 505, 5-N-{[(1S,2R,5S)-6,6-dimethylbicyclo[3.1.1]hept-2-yl]methyl}-2-N-{2-[methyl(propyl)amino]-2-oxoethyl}imidazo[1,2-a]pyridine-2,5-dicarboxamide] | < 2000 |
| CC(C)[C@H]1CN(C(=O)Cc2cn3c(C(=O)NC[C@@H]4CC[C@@H]5C[C@H]4C5(C)C)cccc3n2)CCN1 [Compound 562, N-{[(1R,2R,5R)-6,6-dimethylbicyclo[3.1.1]hept-2-yl]methyl}-2-{2-[(3S)-3-isopropylpiperazin-1-yl]-2-oxoethyl}imidazo[1,2-a]pyridine-5-carboxamide] | < 2000 |
| CC1(C)[C@@H]2CC[C@@H](CNC(=O)c3cccc4nc(CC(=O)N5CCCC5CN)cn34)[C@H]1C2 (stereo partly drawn) [Compound 580, 2-{2-[2-(aminomethyl)pyrrolidin-1-yl]-2-oxoethyl}-N-{[(1R,2R,5R)-6,6-dimethylbicyclo[3.1.1]hept-2-yl]methyl}imidazo[1,2-a]pyridine-5-carboxamide] | < 2000 |

Same assay, conditions: 50% decrease in the fluorescence response of cells exposed to 80 μM of 2′(3′)-O-(4-benzoyl-benzoyl)adenosine 5′-triphosphate; Example 4A; read-out: IC50

| SMILES | IC50 [nM] |
| --- | --- |
| N#CCC1CCN(C(=O)c2cn3c(C(=O)NCC45CC6CC(CC(C6)C4)C5)cccc3n2)CC1 [Compound 705, N-(adamantan-1-ylmethyl)-2-{[4-(cyanomethyl)piperidin-1-yl]carbonyl} imidazo[1,2-a]pyridine-5-carboxamide] | < 2000 |
| CC(C)CC(CNC(=O)c1cccc2nc(CN3CCOCC3)cn12)C1CCCCC1 (centres unmarked) [Compound 687, N-(2-cyclohexyl-4-methylpentyl)-2-(morpholin-4-ylmethyl)imidazo[1,2-a]pyridine-5-carboxamide] | < 2000 |
| CC(C)N[C@@H]1CCCN(C(=O)Cc2cn3c(C(=O)NCC45CC6CC(CC(C6)C4)C5)cccc3n2)C1 [Compound 742, N-(adamantan-1-ylmethyl)-2-{2-[(3R)-3-(isopropylamino)piperidin-1-yl]-2-oxoethyl}imidazo[1,2-a]pyridine-5-carboxamide] | < 2000 |
| O=C(NCC12CC3CC(CC(C3)C1)C2)c1cccc2nc(Cn3nnc(-c4ccccn4)n3)cn12 [Compound 816, N-(adamantan-1-ylmethyl)-2-[(5-pyridin-2-yl-2H-tetrazol-2-yl)methyl]imidazo [1,2-a]pyridine-5-carboxamide] | < 2000 |

Same assay, conditions: 50% decrease in the fluorescence response of cells exposed to 80 μM of 2′(3′)-O-(4-benzoyl-benzoyl)adenosine 5′-triphosphate; determined as in Example 4A; read-out: IC50

| SMILES | IC50 [nM] |
| --- | --- |
| Cc1ccc(C2(CNC(=O)c3cccc4nc(Cn5nnc(CCO)n5)cn34)CCCCC2)cn1 [Compound 922, 2-{[5-(2-hydroxyethyl)-2H-tetrazol-2-yl]methyl}-N-{[1-(6-methylpyridin-3-yl)cyclohexyl]methyl} imidazo[1,2-a] pyridine-5-carboxamide] | < 2000 |
| O=C(Cc1cn2c(C(=O)NCC3CCCCC3)cccc2n1)NCC1(c2ccc(Cl)cc2)CCCCC1 [Compound 978, 2-[2-({[1-(4-chlorophenyl)cyclohexyl]methyl}amino)-2-oxoethyl]-N-(cyclohexylmethyl) imidazo[1,2-a] pyridine-5-carboxamide] | < 2000 |
| CCCC(CNC(=O)c1cccc2nc(CC(=O)N[C@@H]3CCNC3)cn12)c1ccc(Cl)cc1 (stereo partly drawn) [Compound 951, N-[2-(4-chlorophenyl)pentyl]-2-{2-oxo-2-[(3R)-pyrrolidin-3-ylamino]ethyl} imidazo[1,2-a] pyridine-5-carboxamide] | < 2000 |
| O=C(Cc1cn2c(C(=O)NCC3(c4ccc(C(F)(F)F)cc4)CCCCC3)cccc2n1)NCC(F)(F)F [Compound 873, 2-{2-oxo-2-[(2,2,2-trifluoroethyl)amino]ethyl}-N-({1-[4-(trifluoromethyl)phenyl]cyclohexyl}methyl) imidazo[1,2-a] pyridine-5-carboxamide] | < 2000 |
| CCOC(=O)C(Cc1ccccc1)c1cn2c(C(=O)NCC3(c4ccc(Cl)cc4)CCCCC3)cccc2n1 (centres unmarked) [Compound 933, ethyl 2-[5-({[1-(4-chlorophenyl)cyclohexyl]methyl}carbamoyl)imidazo[1,2-a]pyridin-2-yl]-3-phenylpropanoate] | < 2000 |

Same assay, conditions: P2X7 calcium mobilization, Example 4A; 50% decrease in the fluorescence response of cells exposed to 80 μM of (2′(3′)-O-(4-benzoyl-benzoyl)adenosine 5′-triphosephate); read-out: IC50

| SMILES | IC50 [nM] |
| --- | --- |
| O=C(NCC12CC3CC(CC(C3)C1)C2)c1ccc2nc(CCl)cn2c1 [Compound 1062, N-(adamantan-1-ylmethyl)-2-(chloromethyl) imidazo [1,2-a]pyridine-6-carboxamide] | < 2000 |
| O=C(NCC(c1ccc(Cl)cc1)N1CCCCC1)c1cccc2ncc(Br)n12 (centres unmarked) [Compound 1056, 3-bromo-N-[2-(4-chlorophenyl)-2-piperidin-1-ylethyl]imidazo[1,2-a]pyridine-5-carboxamide] | < 2000 |
| CC(C)CC(CNC(=O)c1cccc2nc(CN3CCCC3)cn12)c1ccc(Cl)cc1 (centres unmarked) [Compound 1036, N-[2-(4-chlorophenyl)-4-methylpentyl]-2-(pyrrolidin-1-ylmethyl) imidazo[1,2-a]pyridine-5-carboxamide] | < 2000 |

Same assay, conditions: SH-SY5Y cells; 50% decrease in fluorescence response to 80 μM BzATP; read-out: IC50

| SMILES | IC50 [nM] |
| --- | --- |
| O=C(Cc1cn2c(C(=O)NCC34CC5CC(CC(C5)C3)C4)cccc2n1)NC1CCC1 [Compound 151, N-(adamantan-1-ylmethyl)-2-[2-(cyclobutylamino)-2-oxoethyl]imidazo[1,2-a]pyridine-5-carboxamide] | < 2000 |
| CC(=O)N[C@@H]1CCN(Cc2cn3c(C(=O)NCC45CC6CC(CC(C6)C4)C5)cccc3n2)C1 [Compound 70, 2-[(3-acetamidopyrrolidin-1-yl)methyl]-N-(adamantan-1-ylmethyl)imidazo[1,2-a]pyridine-5-carboxamide] | < 2000 |

Same assay, conditions: fluorescence response of cells exposed to 80 μM 2′(3′)-O-(4-benzoyl-benzoyl)adenosine 5′-triphosphate; Example 4A; read-out: IC50

| SMILES | IC50 [nM] |
| --- | --- |
| CC1(C)[C@H]2CC[C@@H](CNC(=O)c3cccc4nc(C(=O)NC5CCNC5)cn34)[C@@H]1C2 (stereo partly drawn) [Compound 333, 5-N-{[(1S,2R,5S)-6,6-dimethylbicyclo[3.1.1]hept-2-yl]methyl}-2-N-pyrrolidin-3-ylimidazo[1,2-a]pyridine-2,5-dicarboxamide] | < 2000 |
| COCC1CCCN(C(=O)Cc2cn3c(C(=O)NCC(CC(C)C)c4ccccc4)cccc3n2)C1 (centres unmarked) [Compound 240, 2-{2-[3-(methoxymethyl)piperidin-1-yl]-2-oxoethyl}-N-(4-methyl-2-phenylpentyl)imidazo [1,2-a]pyridine-5-carboxamide] | < 2000 |
| CNCC(=O)NCCc1cn2c(C(=O)NCC34CC5CC(CC(C5)C3)C4)cccc2n1 [Compound 270, N-(adamantan-1-ylmethyl)-2-{2-[(N-methylglycyl)amino]ethyl}imidazo[1,2-a] pyridine-5-carboxamide] | < 2000 |
| CC(C)CC(CNC(=O)c1cccc2nc(CC(=O)N3CCCC(C)(C)C3)cn12)c1ccccc1 (centres unmarked) [Compound 244, 2-[2-(3,3-dimethylpiperidin-1-yl)-2-oxoethyl]-N-(4-methyl-2-phenylpentyl)imidazo [1,2-a]pyridine-5-carboxamide] | < 2000 |
